ChEMBL document CHEMBL3351492, “Novel 3,6-bis(imidazolidine)acridines as effective photosensitizers for photodynamic therapy” (Bioorg Med Chem, 2014)
Activity calls are given as the source filed them. The calls are words filed in the database; no cut-off is given here.

Assays:
[1] = system: A2780; test: Drug uptake in human A2780 cell autophagic vacoules at 0.5 uM irradiated for 1 hr followed by incubated with LysoTracker relative to non-irradiated cellsin presence of MDC; type: ADME, cell-based; settings: a2780, 1 h
[2] = system: L1210; test: Cytotoxicity against mouse L1210 cells assessed as inhibition of cell viability for 48 hrs in 1.05 J/cm'2 UV-A irradiation by MTT assay; type: functional, cell-based; settings: L1210, light or radiation study
[3] = system: L1210; test: Cytotoxicity against mouse L1210 cells assessed as inhibition of cell viability for 72 hrs in 1.05 J/cm'2 UV-A irradiation by MTT assay; type: functional, cell-based; settings: L1210, light or radiation study
[4] = system: A2780; test: Cytotoxicity against human A2780 cells assessed as inhibition of cell viability for 48 hrs in dark by MTT assay; type: functional, cell-based; settings: A2780, 48 h
[5] = system: A2780; test: Cytotoxicity against human A2780 cells assessed as inhibition of cell viability for 48 hrs in 1.05 J/cm'2 UV-A irradiation by MTT assay; type: functional, cell-based; settings: A2780, light or radiation study
[6] = system: A2780; test: Cytotoxicity against human A2780 cells assessed as inhibition of cell viability for 72 hrs in dark by MTT assay; type: functional, cell-based; settings: A2780, 72 h
[7] = system: A2780; test: Cytotoxicity against human A2780 cells assessed as inhibition of cell viability for 72 hrs in 1.05 J/cm'2 UV-A irradiation by MTT assay; type: functional, cell-based; settings: A2780, light or radiation study
[8] = Cytotoxicity against mouse NIH/3T3 cells assessed as inhibition of cell viability for 48 hrs in dark by MTT assay; type: cell-based; settings: NIH3T3, 48 h
[9] = Cytotoxicity against mouse NIH/3T3 cells assessed as inhibition of cell viability for 48 hrs in 1.05 J/cm'2 UV-A irradiation by MTT assay; type: cell-based; settings: NIH3T3, light or radiation study
[10] = Cytotoxicity against mouse NIH/3T3 cells assessed as inhibition of cell viability for 72 hrs in dark by MTT assay; type: cell-based; settings: NIH3T3, 72 h
[11] = Cytotoxicity against mouse NIH/3T3 cells assessed as inhibition of cell viability for 72 hrs in 1.05 J/cm'2 UV-A irradiation by MTT assay; type: cell-based; settings: NIH3T3, light or radiation study
[12] = system: A2780; test: Induction of oxidative stress in human A2780 cells assessed as reactive oxygen species production at 0.5 uM for 1 hr in 1.05 J/cm'2 UV-A irradiation by DHE assay; type: functional, cell-based
[13] = system: A2780; test: Genotoxicity in human A2780 cells assessed as DNA damage at 0.05 to 1 uM for 1 hr in 1.05 J/cm'2 UV-A irradiation measured after 12 hrs by comet assay; type: toxicity, cell-based; settings: a2780, 1 h
[14] = system: A2780; test: Drug uptake in human A2780 cell nucleus at 3 uM irradiated for 1 hr followed by incubated with 0.1 uM SytoRed for 35 mins; type: ADME, cell-based; settings: a2780, 1 h
[15] = system: A2780; test: Drug uptake in human A2780 cell lysosome assessed per focused cells at 3 uM irradiated for 1 hr followed by incubated with LysoTracker; type: ADME, cell-based; settings: a2780, 1 h
[16] = system: A2780; test: Drug uptake in human A2780 cell mitochondria assessed per focused cells at 3 uM irradiated for 1 hr followed by incubated with 0.1 uM MitoRed for 15 mins; type: ADME, cell-based; settings: a2780, 1 h
[17] = system: A2780; test: Induction of apoptosis in human A2780 cells assessed as effect on cell morphology at 1 uM for 1 hr in dark measured after 4 hrs by fluorescence microscopy; type: functional, cell-based
[18] = system: A2780; test: Induction of apoptosis in human A2780 cells assessed as volume and condensation of DNA chromatin at 1 uM for 1 hr in 1.05 J/cm'2 UV-A irradiation measured after 4 hrs by fluorescence microscopy; type: functional, cell-based
[19] = system: A2780; test: Induction of apoptosis in human A2780 cells assessed as blebbing of cell membrane at 1 uM for 1 hr in 1.05 J/cm'2 UV-A irradiation measured after 24 hrs by fluorescence microscopy; type: functional, cell-based
[20] = system: A2780; test: Induction of apoptosis in human A2780 cells assessed as DNA ladder formation at 1 uM for 1 hr in 1.05 J/cm'2 UV-A irradiation measured after 4 hrs by agarose gel; type: functional, cell-based
[21] = system: A2780; test: Induction of apoptosis in human A2780 cells assessed as DNA ladder formation at 1 uM after 4 hrs in dark by agarose gel; type: functional, cell-based
[22] = system: A2780; test: Cell cycle arrest in human A2780 cells assessed as cells at sub G0 phase at 1 uM after 4 hrs in dark by PI staining/flow cytometry; type: functional
[23] = system: A2780; test: Cell cycle arrest in human A2780 cells assessed as cells at sub G0 phase at 1 uM for 1 hr in 1.05 J/cm'2 UV-A irradiation measured after 4 hrs by PI staining/flow cytometry; type: functional
[24] = system: A2780; test: Cell cycle arrest in human A2780 cells assessed as cells at S phase at 1 uM for 1 hr in 1.05 J/cm'2 UV-A irradiation measured after 4 hrs by PI staining/flow cytometry; type: functional
[25] = system: A2780; test: Drug uptake in human A2780 cell nucleus at 0.5 uM irradiated for 1 hr followed by incubated with 0.1 uM SytoRed for 35 mins; type: ADME, cell-based; settings: a2780, 1 h
[26] = system: A2780; test: Drug uptake in human A2780 cell mitochondria assessed per focused cells at 0.5 uM irradiated for 1 hr followed by incubated with 0.1 uM MitoRed for 15 mins; type: ADME, cell-based; settings: a2780, 1 h
[27] = system: A2780; test: Drug uptake in human A2780 cell mitochondria assessed per focused cells at 0.5 uM for 1 hr in dark by incubated with 0.1 uM MitoRed for 15 mins; type: ADME, cell-based; settings: a2780, 1 h
[28] = system: A2780; test: Drug uptake in human A2780 cell lysosome at 0.5 uM irradiated for 1 hr followed by incubated with LysoTracker relative to non-irradiated cells; type: ADME, cell-based; settings: a2780, 1 h

SMILES | IC50 [2] [nM] | IC50 [3] [nM] | IC50 [4] [µM] | IC50 [5] [nM] | IC50 [6] [µM] | IC50 [7] [nM] | Activity [12] | Activity [13] | further results
CCCCCN1C(=O)CN/C1=N\c1ccc2cc3ccc(/N=C4\NCC(=O)N4CCCCC)cc3nc2c1.Cl | 640 | 590 | 19.5 | 1430 | 13.8 | 1090 | Active | Non-toxic | Drug uptake [1]: Active; IC50 [8]: > 50 µM; IC50 [9]: > 30 µM; IC50 [10]: > 50 µM; IC50 [11]: 28.4 µM; Drug uptake [14]: Not Active; Drug uptake [15]: 6%; Drug uptake [16]: 7%; Activity [17]: inactive; Activity [18]: Active; Activity [19]: Active; Activity [20]: Active; Activity [21]: inactive; Activity [22]: 1.42%; Activity [23]: 7.69%; Activity [24]: 43%; Drug uptake [25]: Not Active; Drug uptake [26]: 2%; Drug uptake [27]: 7%; Drug uptake [28]: 24%
Nc1ccc2cc3ccc(N)cc3nc2c1 |  |  | 0.48 | 330 | 0.18 | 100 |  |  | 
CCCCCCN1C(=O)CN/C1=N\c1ccc2cc3ccc(/N=C4\NCC(=O)N4CCCCCC)cc3nc2c1.Cl | 770 | 640 | 15.7 | 1580 | 9.58 | 1260 | Active | Non-toxic | 
